Conditions: Liquid, Vibrating tube method

CCCCCCCO [heptan-1-ol]
mass density [kg/m3]
Conditions | 278.15 K | 288.15 K | 298.15 K | 308.15 K | 318.15 K | 328.15 K | 338.15 K | 348.15 K | 358.15 K
100 kPa | 832.4 | 825.5 | 818.5 | 811.4 | 804.3 | 797.1 | 789.7 | 782.1 | 774.2
1000 kPa | 833 | 826.1 | 819.1 | 812.1 | 805 | 797.8 | 790.4 | 782.9 | 775.1
5000 kPa | 835.4 | 828.6 | 821.8 | 814.7 | 807.9 | 800.9 | 793.7 | 786.3 | 778.7
10000 kPa | 838.3 | 831.7 | 824.9 | 818.3 | 811.4 | 804.6 | 797.5 | 790.4 | 783
15000 kPa | 841.2 | 834.7 | 828.1 | 821.5 | 814.8 | 808.1 | 801.2 | 794.2 | 787.1
20000 kPa | 843.9 | 837.6 | 831.1 | 824.6 | 818.1 | 811.5 | 804.7 | 797.9 | 790.9
25000 kPa | 846.4 | 840.4 | 833.9 | 827.6 | 821.2 | 814.7 | 808.1 | 801.4 | 794.6
30000 kPa | 849.2 | 843.1 | 836.7 | 830.5 | 824.2 | 817.8 | 811.4 | 804.8 | 798.2
35000 kPa | 851.7 | 845.7 | 839.5 | 833.3 | 827.1 | 820.8 | 814.6 | 808.1 | 801.5
40000 kPa | 854.2 | 848.2 | 842.1 | 836 | 829.9 | 823.8 | 817.5 | 811.3 | 804.9
45000 kPa | 856.6 | 850.7 | 844.7 | 838.7 | 832.7 | 826.6 | 820.6 | 814.3 | 808.1
50000 kPa | 859 | 853.1 | 847.2 | 841.3 | 835.4 | 829.4 | 823.4 | 817.3 | 811.1
55000 kPa | 861.3 | 855.5 | 849.7 | 843.8 | 838 | 832.1 | 826.2 | 820.2 | 814.1
60000 kPa | 863.4 | 857.8 | 852.1 | 846.1 | 840.4 | 834.5 | 828.7 | 822.8 | 816.9

CCCCCCCCCO [nonan-1-ol]
mass density [kg/m3]
Conditions | 278.15 K | 288.15 K | 298.15 K | 308.15 K | 318.15 K | 328.15 K | 338.15 K | 348.15 K | 358.15 K
100 kPa | 836.9 | 829.9 | 823.2 | 816.5 | 809.8 | 802.8 | 795.7 | 788.3 | 780.9
1000 kPa | 837.4 | 830.5 | 823.7 | 817.1 | 810.4 | 803.4 | 796.4 | 788.9 | 781.6
5000 kPa | 839.7 | 832.7 | 826.3 | 819.8 | 813.2 | 806.3 | 799.4 | 792.3 | 785
10000 kPa | 842.5 | 835.9 | 829.4 | 822.9 | 816.5 | 809.8 | 803 | 796.1 | 789
15000 kPa | 845.1 | 838.7 | 832.3 | 826 | 819.7 | 813.1 | 806.5 | 799.7 | 792.9
20000 kPa | 847.8 | 841.4 | 835.1 | 828.9 | 822.7 | 816.3 | 809.8 | 803.2 | 796.5
25000 kPa | 850.3 | 844 | 837.9 | 831.8 | 825.6 | 819.3 | 813 | 806.6 | 799.9
30000 kPa | 852.8 | 846.6 | 840.5 | 834.5 | 828.5 | 822.3 | 816.1 | 809.8 | 803.3
35000 kPa | 855.3 | 849.1 | 843.1 | 837.2 | 831.3 | 825.2 | 819.1 | 812.9 | 806.6
40000 kPa | 857.6 | 851.6 | 845.7 | 839.8 | 834 | 828 | 822 | 815.9 | 809.7
45000 kPa | 859.9 | 854 | 848.1 | 842.4 | 836.6 | 830.7 | 824.8 | 818.8 | 812.8
50000 kPa | 862.2 | 856.3 | 850.5 | 844.8 | 839.2 | 833.4 | 827.6 | 821.6 | 815.7
55000 kPa | 864.4 | 858.6 | 852.9 | 847.3 | 841.7 | 836 | 830.2 | 824.4 | 818.6
60000 kPa | 866.4 | 860.7 | 855 | 849.3 | 844 | 838.3 | 832.7 | 826.7 | 821.2

CCCCCCCCO [octan-1-ol]
mass density [kg/m3]
Conditions | 278.15 K | 288.15 K | 298.15 K | 308.15 K | 318.15 K | 328.15 K | 338.15 K | 348.15 K | 358.15 K
100 kPa | 835.2 | 828.4 | 821.4 | 814.5 | 807.5 | 800.4 | 793.2 | 785.6 | 778
1000 kPa | 835.7 | 829 | 822 | 815.1 | 808.1 | 801.1 | 793.9 | 786.4 | 778.8
5000 kPa | 838 | 831.5 | 824.6 | 817.8 | 811 | 804.1 | 796.9 | 789.8 | 782.3
10000 kPa | 841 | 834.4 | 827.7 | 821.1 | 814.4 | 807.7 | 800.8 | 793.6 | 786.4
15000 kPa | 843.7 | 837.3 | 830.7 | 824.2 | 817.7 | 811.1 | 804.4 | 797.4 | 790.4
20000 kPa | 846.4 | 840.1 | 833.6 | 827.2 | 820.8 | 814.4 | 807.8 | 801 | 794.1
25000 kPa | 849 | 842.8 | 836.4 | 830.1 | 823.8 | 817.5 | 811.1 | 804.5 | 797.7
30000 kPa | 851.5 | 845.5 | 839.1 | 833 | 826.8 | 820.5 | 814.2 | 807.8 | 801.1
35000 kPa | 854 | 848 | 841.8 | 835.7 | 829.6 | 823.5 | 817.3 | 810.9 | 804.5
40000 kPa | 856.4 | 850.5 | 844.4 | 838.4 | 832.4 | 826.4 | 820.3 | 814 | 807.7
45000 kPa | 858.8 | 852.9 | 846.9 | 841 | 835.1 | 829.1 | 823.1 | 817 | 810.8
50000 kPa | 861.1 | 855.3 | 849.4 | 843.5 | 837.7 | 831.9 | 825.9 | 819.9 | 813.6
55000 kPa | 863.4 | 857.6 | 851.7 | 846 | 840.3 | 834.5 | 828.7 | 822.7 | 816.7
60000 kPa | 865.5 | 859.8 | 853.9 | 848.2 | 842.6 | 836.9 | 831.2 | 825.5 | 819.6

From the NIST ThermoML archive (doi:10.1016/j.jct.2011.10.023)
